Measurements published in ChEMBL document CHEMBL1151797, “Discovery of inhibitors of the channel-activating protease prostasin (CAP1/PRSS8) utilizing structure-based design” (Bioorg Med Chem Lett, 2008).

biological target: Prostasin (Homo sapiens, UniProt Q16651); assay: Binding affinity to human prostasin
Sequence (Q16651 45-322 limits assumed, other chains not shown): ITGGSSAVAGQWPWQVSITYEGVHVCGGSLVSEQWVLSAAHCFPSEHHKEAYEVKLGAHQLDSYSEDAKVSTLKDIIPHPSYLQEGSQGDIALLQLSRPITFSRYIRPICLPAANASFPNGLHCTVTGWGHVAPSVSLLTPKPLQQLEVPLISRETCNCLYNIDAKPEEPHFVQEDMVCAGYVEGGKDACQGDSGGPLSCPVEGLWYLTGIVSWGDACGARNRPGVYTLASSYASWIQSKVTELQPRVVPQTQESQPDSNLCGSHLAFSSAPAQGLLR

SMILES | Ki [µM]
NCCCC[C@H](NC(=O)[C@@H]1C[C@@H](OC(=O)Nc2ccccc2)CN1C(=O)[C@@H](CCc1ccccc1)NC(=O)OCc1ccccc1)C(=O)c1nc2ccccc2o1 | 0.13
NCCCC[C@H](NC(=O)[C@@H]1[C@@H](c2ccccc2)CCN1C(=O)[C@@H](CCc1ccccc1)NC(=O)OCc1ccccc1)C(=O)c1nc2ccccc2o1 | 0.267
CN(C)C(=O)O[C@@H]1C[C@@H](C(=O)N[C@@H](CCCCN)C(=O)c2nc3ccccc3o2)N(C(=O)[C@@H](CCc2ccccc2)NC(=O)OCc2ccccc2)C1 | 1.55
NCCCC[C@H](NC(=O)[C@@H]1CCCN1C(=O)[C@@H](CCc1ccccc1)NC(=O)OCc1ccccc1)C(=O)c1nc2ccccc2o1 | 1.4
CS(=O)(=O)c1ccc(CNC(=O)O[C@@H]2C[C@@H](C(=O)N[C@@H](CCCCN)C(=O)c3nc4ccccc4o3)N(C(=O)[C@@H](CCc3ccccc3)NC(=O)OCc3ccccc3)C2)cc1 | 0.176
NCCCC[C@H](NC(=O)[C@H](CCc1ccccc1)NC(=O)[C@H](Cc1cnc[nH]1)NC(=O)OCc1ccccc1)C(=O)c1nc2ccccc2o1 | 2.1
NCCCC[C@H](NC(=O)[C@@H]1C[C@@H](OC(=O)N2CCCC2)CN1C(=O)[C@@H](CCc1ccccc1)NC(=O)OCc1ccccc1)C(=O)c1nc2ccccc2o1 | 0.101
CC(C)C[C@H](NC(=O)[C@H](Cc1cnc[nH]1)NC(=O)OCc1ccccc1)C(=O)N[C@@H](CCCCN)C(=O)c1nc2ccccc2o1 | 5.72
NCCCC[C@H](NC(=O)[C@@H]1C[C@@H](O)CN1C(=O)[C@@H](CCc1ccccc1)NC(=O)OCc1ccccc1)C(=O)c1nc2ccccc2o1 | 1.04
CC(C)C[C@H](NC(=O)[C@H](CCCCN)NC(=O)OCc1ccccc1)C(=O)N[C@@H](CCCCN)C(=O)c1nc2ccccc2o1 | 15.2
NCCCC[C@H](NC(=O)[C@H](CCc1ccccc1)NC(=O)OCc1ccccc1)C(=O)c1nc2ccccc2o1 | > 100
CC(C)C[C@H](NC(=O)OCc1ccccc1)C(=O)N[C@@H](CCCCN)C(=O)c1nc2ccccc2o1 | > 100
NCCCC[C@H](NC(=O)[C@@H]1C[C@@H](OC(=O)N2CCOCC2)CN1C(=O)[C@@H](CCc1ccccc1)NC(=O)OCc1ccccc1)C(=O)c1nc2ccccc2o1 | 0.51

Compounds with a lower Ki, results first:

Ki [µM] | SMILES
0.041 | NCCCC[C@H](NC(=O)[C@@H]1C[C@@H](OCc2cccc(C(F)(F)F)c2)CN1C(=O)[C@@H](CCc1ccccc1)NC(=O)OCc1ccccc1)C(=O)c1nc2ccccc2o1
0.065 | NCCCC[C@H](NC(=O)[C@@H]1C[C@@H](OCC2CCCC2)CN1C(=O)[C@@H](CCc1ccccc1)NC(=O)OCc1ccccc1)C(=O)c1nc2ccccc2o1
0.029 | NCCCC[C@H](NC(=O)[C@@H]1C[C@@H](OC(=O)N2CCCCC2)CN1C(=O)[C@@H](CCc1ccccc1)NC(=O)OCc1ccccc1)C(=O)c1nc2ccccc2o1
0.04 | NCCCC[C@H](NC(=O)[C@@H]1C[C@@H](OCc2ccccc2)CN1C(=O)[C@@H](CCc1ccccc1)NC(=O)OCc1ccccc1)C(=O)c1nc2ccccc2o1
0.019 | NCCCC[C@H](NC(=O)[C@@H]1C[C@@H](OCC2CCCCC2)CN1C(=O)[C@@H](CCc1ccccc1)NC(=O)OCc1ccccc1)C(=O)c1nc2ccccc2o1
0.06 | NCCCC[C@H](NC(=O)[C@@H]1C[C@@H](OC(=O)NCc2ccccc2)CN1C(=O)[C@@H](CCc1ccccc1)NC(=O)OCc1ccccc1)C(=O)c1nc2ccccc2o1
0.028 | NCCCC[C@H](NC(=O)[C@@H]1C[C@@H](OCc2ccc(C(F)(F)F)cc2)CN1C(=O)[C@@H](CCc1ccccc1)NC(=O)OCc1ccccc1)C(=O)c1nc2ccccc2o1
0.012 | NCCCC[C@H](NC(=O)[C@@H]1C[C@@H](OCc2ccc(Cl)cc2)CN1C(=O)[C@@H](CCc1ccccc1)NC(=O)OCc1ccccc1)C(=O)c1nc2ccccc2o1
0.027 | NCCCC[C@H](NC(=O)[C@@H]1C[C@@H](OCc2ccc(F)cc2)CN1C(=O)[C@@H](CCc1ccccc1)NC(=O)OCc1ccccc1)C(=O)c1nc2ccccc2o1
0.045 | Cc1ccc(CO[C@@H]2C[C@@H](C(=O)N[C@@H](CCCCN)C(=O)c3nc4ccccc4o3)N(C(=O)[C@@H](CCc3ccccc3)NC(=O)OCc3ccccc3)C2)cc1
0.049 | C[C@H]1CCN(C(=O)[C@@H](CCc2ccccc2)NC(=O)OCc2ccccc2)[C@@H]1C(=O)N[C@@H](CCCCN)C(=O)c1nc2ccccc2o1
